Consider 80 compounds from PMC12040169 (PLOS Biology, 2025).

A short description of the first series: in vitro. The following applies: human, hela cells, % viability.
For the compound `Cc1cc(C(=O)NC(C)C2CC3CCC2C3)c2cnn(C(C)C)c2n1` (centres unmarked) [CBK281652], the viability at 28.5 h, 10 µM was 96%. For the compound `COc1ccc(CCn2cncc2-c2cn(C)nc2C)cc1C` [CBK281814], the viability at 28.5 h, 10 µM was found to be 102%.

For `COC(=O)c1ccccc1NC(=O)CCSc1ccc(C)cc1` [CBK265958], the viability at 28.5 h, 10 µM was 91.9%. On the same count and under the same terms, the same measure for `CCOc1ccc(C(=O)NCCC(=O)O)cc1` [CBK261725D]: 92.2%; for `CNC(=O)c1ccc(-c2ccc(N3CCOCC3)cc2)nc1NCC1CC1` [CBK106305]: 102%; for `CCN(CCn1cccn1)c1nc2nonc2nc1N(C)C` [CBK306630]: 88.9%. Still for that read-out and setting: with `O=C(COc1ccc(-c2ccccc2)cc1)N1CCN(S(=O)(=O)c2ccccc2[N+](=O)[O-])CC1` [CBK264154] the figure was 93%; with `Cc1cc(NC(=O)CSc2ccc3nnc(-c4ccccc4)n3n2)no1` [CBK287518], 94.8%. Turning to `CC1CCN(C(=O)[C@@H]2CN(C)C[C@]23CCc2ccccc2C3=O)CC1` [CBK284589], the viability at 28.5 h, 10 µM amounted to 100%.

As for `CN(C(=O)CN)c1nc2c(s1)CC(c1ccccc1)CC2` (centres unmarked) [CBK304298C], the viability at 28.5 h, 10 µM turned out to be 74.1%. Turning to `O=C(c1ccc(-n2ccnc2)c(-n2cccc2)c1)N1CCCCCC1` [CBK284813], the viability at 28.5 h, 10 µM is 87.4%. The same measure, in the same setting: the same measure for `CC(C)C(=O)N1CCCC(n2nc(-c3cccs3)ccc2=O)C1` (centres unmarked) [CBK284038]: 92.3%; for `O=C(c1ccc(S(=O)(=O)N2CCCCC2)cc1)N1CCN(CCN2C(=O)c3cccc4cccc(c34)C2=O)CC1` [CBK262536]: 79.3%; for `Cc1ccc(S(=O)(=O)N2CCSC2C(=O)O)cc1` (centres unmarked) [CBK286964]: 86.8%. As to `CCc1ccc(/C=C2/SC(=S)N(CCC(=O)O)C2=O)cc1` [CBK263390], the viability at 28.5 h, 10 µM came to 120%. As to `O=C(O)c1ccccc1-c1nc(-c2ccccc2F)no1` [CBK268022], the viability at 28.5 h, 10 µM was found to be 100%. The same measure, in the same setting: with `COc1cc(/C=N/NC(=O)C2COc3ccccc3O2)cc([N+](=O)[O-])c1O` (centres unmarked) [CBK261480] the figure was 89.1%. Still for that read-out and setting: the same measure for `COC(=O)C1Cc2cc3c(cc2C(c2cc(OC)c(OC)c(OC)c2)N1)OCO3` (centres unmarked) [CBK200104T]: 65.5%; for `COc1ccccc1C1=NN(C(=O)CCCC(=O)O)C(c2ccco2)C1` (centres unmarked) [CBK266642]: 91.8%. On the same count and under the same terms, with `O=S(=O)(Nc1cccnc1N1CCOCC1)c1cc(C(F)(F)F)cc(C(F)(F)F)c1` [CBK062306] the figure was 122%; with `CN(CCO)S(=O)(=O)c1ccccc1[N+](=O)[O-]` [CBK261457], 102%. With `O=C(O)C1CCCCC1C(=O)N1CCN(C(c2ccccc2)c2ccccc2)CC1` (centres unmarked) [CBK265480], the viability at 28.5 h, 10 µM came out at 90.7%. On the same count and under the same terms, the same measure for `CC(C)(CO)CNc1cncc(-c2cccnc2)n1` [CBK037881]: 89.8%; for `C=CCOc1ccc2ccccc2c1CNc1nc[nH]n1` [CBK267296]: 87.9%. The same measure, in the same setting: the same measure for `Cc1cc(N2CCN(C(=O)c3ccsc3)CC2)nc(C(C)C)n1` [CBK304053]: 102%; for `Cn1nc(C2CC2)cc1C(=O)NCCN1CCc2ccccc21` [CBK282138]: 91.5%. On the same count and under the same terms, the same measure for `O=C(CCc1cccnc1)NC1Cc2ccccc2C1` [CBK200352]: 97.4%.

Turning to `COc1cc(-c2nccnc2NCCCO)cc(OC)c1OC` [CBK037274], the viability at 28.5 h, 10 µM is 105%. Still for that read-out and setting: the same measure for `COc1ccc2nc(Nc3nc4ccc(S(C)(=O)=O)cc4s3)sc2c1` [CBK287484]: 102%. The same measure, in the same setting: the same measure for `CCCCn1nc(C(=O)N2CCCCC2c2ncc(-c3cccc(F)c3)[nH]2)ccc1=O` (centres unmarked) [CBK291149]: 98.6%.

Turning to `CN(C)CCN(C)C(=O)c1cc2cc(OC(F)(F)F)ccc2[nH]1` [CBK107316], the viability at 28.5 h, 10 µM is 91.5%. The same measure, in the same setting: the same measure for `O=C(CCCc1ccccc1)Nc1ccc(O)cc1C(=O)O` [CBK131699]: 99.7%; for `NC(=O)c1cccc(NC(=O)/C=C/C(=O)O)c1` [CBK261678]: 96.8%; for `CCN1CC2(CCN(CCOc3ccccc3)CC2)c2ccccc21` [CBK122705]: 100%. Still for that read-out and setting: the same measure for `CCCCc1ccc(Nc2ncnc3nc[nH]c23)cc1` [CBK288006]: 96.3%; for `CCCCC(c1cccnc1)N(C)C(=O)CCc1ccnn1C` (centres unmarked) [CBK306664]: 117%.

Take `COc1cccc(CCOc2cncc(Cl)n2)c1` [CBK113556]: the viability at 28.5 h, 10 µM amounted to 87.3%. Same read-out and setting: the same measure for `COCCN(Cc1ccncc1)C(=O)c1cc(C(C)C)n2ncnc2n1` [CBK306983]: 97.4%; for `Cc1nn(C)cc1C(=O)N1CCCCC1c1nc2ccccc2[nH]1` (centres unmarked) [CBK283779]: 84.7%. On the same count and under the same terms, with `CC(C)N(Cc1nc(-c2ccc(Cl)cc2)no1)C(=O)COc1ccc(Br)cc1Cl` [CBK267126] the figure was 111%; with `COc1cc2cc(O)c(C)c(NCc3ccco3)c2cc1OC` [CBK013723], 84.4%; with `FC(F)(F)c1nnc2ccc(N3CCN(Cc4ccsc4)CC3)nn12` [CBK305930], 88.6%. Regarding `C=CCn1cc(CN(CCN(C)C)Cc2ccc(C)o2)c(C)n1` [CBK282844], the viability at 28.5 h, 10 µM came out at 101%.

For `O=c1c2ccccc2[nH]c(=S)n1CCCN1CCC(Cc2ccccc2)CC1` [CBK267952], the viability at 28.5 h, 10 µM is 86.2%. On the same count and under the same terms, the same measure for `Cc1noc(C)c1NC(=O)N(Cc1ccc2ccccc2c1)CC1CCNCC1` [CBK049774]: 110%.

As to `CN(C)CCO/N=C(\c1ccccc1)c1ccncc1` [CBK261095G], the viability at 28.5 h, 10 µM turned out to be 94.2%. On the same count and under the same terms, the same measure for `Cc1cc(CN(C)Cc2c(C)nn(-c3ccc(F)cc3)c2C)n[nH]1` [CBK281990]: 95%; for `C#CCNC(=O)c1nn(Cc2ccc(S(=O)(=O)N(C)OC)cc2)c2ccccc12` [CBK047985]: 96.2%; for `Nc1cc2ccccc2c(-c2ccncc2)n1` [CBK085708]: 99.1%. Still for that read-out and setting: with `CC1(C)CC(=O)c2cnc3ncnn3c2C1` [CBK007345] the figure was 110%; with `Cc1ccc(S(=O)(=O)N(CC(=O)Nc2ccccc2C)Cc2ccc(Cl)c(Cl)c2)cc1` [CBK264735], 93.3%; with `Fc1ccc(CN2C3CCCC2CC(NC(=S)NC2CCCCC2)C3)cc1` (centres unmarked) [CBK121172], 90%.

`CS(=O)(=O)N1CC2(CCN(CCCCC3NC(=O)NC3=O)CC2)c2ccccc21` (centres unmarked) [CBK126684]: the viability at 28.5 h, 10 µM was determined as 97.1%. Still for that read-out and setting: with `O=C(Nc1ccc(Cc2ccc(O)c(NC(=O)c3ccccc3F)c2)cc1O)c1ccccc1F` [CBK265766] the figure was 85.4%. Same read-out and setting: the same measure for `CC(=O)Nc1ccc(CN(C)c2c(C)nc3c(OCc4ccc(C(F)(F)F)cc4)cccn23)cc1` [CBK147380]: 94.5%; for `O=C(Nc1nnn[nH]1)C1(c2ccc([N+](=O)[O-])cc2)CCCC1` [CBK267237]: 93.7%. As to `CN1CCC(NC(=O)c2cccc(NC(=O)C3CCCCC3)c2)C1=O` (centres unmarked) [CBK306228], the viability at 28.5 h, 10 µM was determined as 81.3%. Same read-out and setting: with `CCOC(=O)c1nnc(-c2cccs2)nc1NC1CCCCC1` [CBK018110] the figure was 86.8%.

For the compound `Cc1cccn2c(CN3CCCC(O)C3)c(C(=O)N3CCCCC3)nc12` (centres unmarked) [CBK307342], the viability at 28.5 h, 10 µM stood at 94%. The same measure, in the same setting: the same measure for `Cc1ccccc1CN1CCCN(C(=O)CCNC(=O)c2ccco2)CC1` [CBK297718]: 103%. As to `C/C(=N/NC(=O)CSc1nc2ccccc2n1C)c1cccc([N+](=O)[O-])c1` [CBK263179], the viability at 28.5 h, 10 µM worked out at 99.3%. Take `O=C1CSC(=O)N1CNc1ccc(Br)cc1` [CBK261819]: the viability at 28.5 h, 10 µM worked out at 90.2%.

`CNC(=O)c1ccc(-c2ccccc2OC)nc1N1CCOCC1` [CBK106210]: the viability at 28.5 h, 10 µM worked out at 87.4%. Regarding `O=C(CCn1c(-c2ccccc2)c(-c2ccccc2)c2ccccc21)N/N=C/c1ccccc1O` [CBK262353], the viability at 28.5 h, 10 µM amounted to 66.9%. Still for that read-out and setting: with `CC(C)(C)NS(=O)(=O)c1ccc(NC(=O)COc2ccc3ccccc3c2Br)cc1` [CBK267015] the figure was 96.5%; with `O=C(CN1CCNCC1)Nc1ccc(Oc2ccccc2)cc1` [CBK267191C], 102%; with `O=c1ccc2ccc(-c3ccsc3)nc2[nH]1` [CBK073710], 97%.

With `COc1ccc(-c2sc(C(=O)O)c(C)c2C#N)cc1` [CBK019922], the viability at 28.5 h, 10 µM was found to be 101%.

In the case of `S=C(NCCc1ccc(Cl)cc1)NCc1ccco1` [CBK266812], the viability at 28.5 h, 10 µM turned out to be 83.3%.

Turning to `CCCc1cc(C(=O)OC)c(NC(=O)C2CC=CCC2C(=O)O)s1` (centres unmarked) [CBK265397], the viability at 28.5 h, 10 µM worked out at 117%. On the same count and under the same terms, the same measure for `CCC(O)CNC(=O)c1coc(COc2ccc3sc(C)nc3c2)n1` (centres unmarked) [CBK307700]: 90.8%. Still for that read-out and setting: the same measure for `CC(=O)c1c2c(c(N3CCN(C#N)CC3)[nH]c1=S)CC(C)(C)OC2` [CBK018622]: 86.3%; for `COc1ccc(CC(=O)Nc2cccc(-c3cn4ccc(C)cc4n3)c2)cc1OC` [CBK269148]: 84.5%; for `Cc1cccc(CN2CCC[C@@H]3CN(C(=O)CC(C)C)C[C@@H]32)n1` [CBK285291]: 108%. On the same count and under the same terms, with `CC1CN(C2(n3nnc4ccccc43)CCC(C(C)(C)C)CC2)CC(C)O1` (centres unmarked) [CBK019373] the figure was 98.5%; with `Cc1nc(C)n(CC2CCCN(c3ncnc4ccsc34)C2)n1` (centres unmarked) [CBK304037], 71.8%. Turning to `COc1cc2c(cc1NC(=O)c1ccc(C)c([N+](=O)[O-])c1)oc1ccccc12` [CBK263411], the viability at 28.5 h, 10 µM was found to be 91.9%. Still for that read-out and setting: with `N#Cc1c2c(c(-c3ccccc3)[nH]c1=O)CCCC2` [CBK287905] the figure was 91.6%; with `COc1nccnc1OC1CCN(Cc2ccc([N+](=O)[O-])cc2)CC1` [CBK084245], 105%.

The same series, now with this note: human, hela cells, % viability, bulk resorufin, single well.
As to `O=C(O)COc1c(Cl)cc(/C=C2\C(=O)NC(=S)N(c3ccc(F)cc3)C2=O)cc1Cl` [CBK263391], the viability at 28.5 h, 10 µM was 107%.
